Reference: PubChem BioAssay (NCI)
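Results reflect a 48-hour exposure of cells in 96-well plates to compound at five concentrations. The concentration for 50% growth inhibition is given as GI50. Definition used: TGI = concentration required for complete inhibition of growth.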

Tests used:
Assay in all cases: NCI tumour cell line growth inhibition, 48 h
T-47D breast = tested on: T-47D breast
HOP-62 NSCLC = tested on: HOP-62 NSCLC
MALME-3M melanoma = tested on: MALME-3M melanoma
OVCAR-8 ovarian = tested on: OVCAR-8 ovarian
CAKI-1 renal = tested on: CAKI-1 renal
786-0 renal = tested on: 786-0 renal
KM12 colon = tested on: KM12 colon
HS 578T breast = tested on: HS 578T breast
LXFL 529 NSCLC = tested on: LXFL 529 NSCLC
DLD-1 colon = tested on: DLD-1 colon

CC(=O)OC[C@]1(C)C=C2C(=O)[C@](C)(O)C3(CC3)C(C)=C2[C@H]1O
GI50 (T-47D breast): 0.207 µM | TGI (T-47D breast): 3.65 µM | GI50 (HOP-62 NSCLC): 0.239 µM | TGI (HOP-62 NSCLC): 1.23 µM | GI50 (MALME-3M melanoma): 0.124 µM | TGI (MALME-3M melanoma): 0.302 µM | GI50 (OVCAR-8 ovarian): 0.177 µM | TGI (OVCAR-8 ovarian): 4.51 µM | GI50 (CAKI-1 renal): 0.041 µM | TGI (CAKI-1 renal): 2.58 µM | GI50 (786-0 renal): 0.0411 µM | TGI (786-0 renal): 0.35 µM | GI50 (KM12 colon): 0.191 µM | TGI (KM12 colon): > 34.7 µM | GI50 (HS 578T breast): 0.296 µM | TGI (HS 578T breast): 1.09 µM

Oc1ccc2ccccc2c1N=Nc1nccs1
GI50 (T-47D breast): 1.71 µM | TGI (T-47D breast): 12.6 µM | GI50 (HOP-62 NSCLC): 3.87 µM | TGI (HOP-62 NSCLC): 56.8 µM | GI50 (MALME-3M melanoma): 2.41 µM | TGI (MALME-3M melanoma): 15.4 µM | GI50 (OVCAR-8 ovarian): 0.494 µM | TGI (OVCAR-8 ovarian): 42 µM | GI50 (CAKI-1 renal): 0.323 µM | TGI (CAKI-1 renal): 11.6 µM | GI50 (786-0 renal): 0.476 µM | TGI (786-0 renal): > 41.7 µM | GI50 (KM12 colon): 0.629 µM | TGI (KM12 colon): 19.9 µM | GI50 (HS 578T breast): 4.55 µM | TGI (HS 578T breast): 45.2 µM

O=C(/N=N/C(=O)OCc1ccccc1)OCc1ccccc1
TGI (HOP-62 NSCLC): > 100 µM | TGI (MALME-3M melanoma): > 100 µM | TGI (LXFL 529 NSCLC): > 100 µM | TGI (OVCAR-8 ovarian): > 100 µM | TGI (CAKI-1 renal): > 100 µM | TGI (786-0 renal): > 100 µM | TGI (KM12 colon): > 100 µM

CCC[CH2][Sn]([CH2]CCC)([O]C(=O)c1cccnc1SC)[O]C(=O)c1cccnc1SC
GI50 (DLD-1 colon): 0.347 µM | TGI (DLD-1 colon): 1.61 µM | GI50 (HOP-62 NSCLC): 2.43 µM | TGI (HOP-62 NSCLC): 4.22 µM | GI50 (MALME-3M melanoma): 0.295 µM | TGI (MALME-3M melanoma): 1.49 µM | GI50 (LXFL 529 NSCLC): 0.059 µM | TGI (LXFL 529 NSCLC): 0.238 µM | GI50 (OVCAR-8 ovarian): 1.3 µM | TGI (OVCAR-8 ovarian): 2.78 µM | GI50 (786-0 renal): 0.67 µM | TGI (786-0 renal): 1.98 µM | GI50 (KM12 colon): 1.51 µM | TGI (KM12 colon): 3.08 µM

CC1(C)OC2[C@@H](CNC(=O)NC(=O)NC(=O)CI)O[C@@H](n3cnc4c(NC(=O)Nc5ccccc5)ncnc43)[C@H]2O1 (stereo partly specified)
GI50 (T-47D breast): 9.64 µM | TGI (T-47D breast): 21.5 µM | GI50 (HOP-62 NSCLC): > 50 µM | TGI (HOP-62 NSCLC): > 50 µM | GI50 (MALME-3M melanoma): 1.12 µM | TGI (MALME-3M melanoma): 2.9 µM | GI50 (OVCAR-8 ovarian): 9.45 µM | TGI (OVCAR-8 ovarian): 22.7 µM | GI50 (CAKI-1 renal): 0.79 µM | TGI (CAKI-1 renal): 1.56 µM | GI50 (786-0 renal): 7.47 µM | TGI (786-0 renal): 14.4 µM | GI50 (KM12 colon): 15.8 µM | TGI (KM12 colon): > 50 µM | GI50 (HS 578T breast): 12.5 µM | TGI (HS 578T breast): 37.8 µM

N#Cc1ccc(NC(=O)Nc2ccc(Oc3ccc(NC(=O)Nc4ccc(C#N)cc4)cc3)cc2)cc1
GI50 (T-47D breast): 0.622 µM | TGI (T-47D breast): 31.6 µM | GI50 (HOP-62 NSCLC): 3.06 µM | TGI (HOP-62 NSCLC): 20.6 µM | GI50 (MALME-3M melanoma): 3.28 µM | TGI (MALME-3M melanoma): 77.8 µM | GI50 (OVCAR-8 ovarian): 14.4 µM | TGI (OVCAR-8 ovarian): > 100 µM | GI50 (CAKI-1 renal): 20.8 µM | TGI (CAKI-1 renal): > 100 µM | GI50 (786-0 renal): 10.5 µM | TGI (786-0 renal): 63.4 µM | GI50 (KM12 colon): 11.2 µM | TGI (KM12 colon): > 100 µM | GI50 (HS 578T breast): 7.49 µM | TGI (HS 578T breast): > 100 µM

C=C1C(=O)O[C@H]2[C@H]1CC/C(Cn1cc(-c3ccc(OC)cc3)nn1)=C\CC[C@@]1(C)O[C@@H]21
GI50 (T-47D breast): 1.43 µM | TGI (T-47D breast): 3.08 µM | GI50 (HOP-62 NSCLC): 10.5 µM | TGI (HOP-62 NSCLC): 23.1 µM | GI50 (MALME-3M melanoma): 1.67 µM | TGI (MALME-3M melanoma): 3.4 µM | GI50 (OVCAR-8 ovarian): 2.59 µM | TGI (OVCAR-8 ovarian): 7.67 µM | GI50 (CAKI-1 renal): 1.03 µM | TGI (CAKI-1 renal): 3.63 µM | GI50 (786-0 renal): 1.24 µM | TGI (786-0 renal): 2.65 µM | GI50 (KM12 colon): 3.51 µM | TGI (KM12 colon): 14.2 µM | GI50 (HS 578T breast): 7.42 µM | TGI (HS 578T breast): 36.9 µM
